Like-named read-outs stand apart in the source and are kept apart here.
Tests used:
Sigma-1 receptors [1] = conditions: Table 11E, clinical compounds; first figure of S1/S2; read-out: Sigma Affinity (S1); cited from earlier work
muscarinic M1, 2, D2 = conditions: cited from earlier work
VAChT = VAChT (Homo sapiens, UniProt Q16572); conditions: cited from earlier work
Sigma-2 receptors = conditions: cited from earlier work
alpha1 AR, 5-HT1a/2, H1 = conditions: cited from earlier work
alpha 1A, 1B = conditions: cited from earlier work
[2] = test system: SKOV-3 human ovarian cancer cell line; experiment: MTS tumor cell viability assay; assay type: cell-based; conditions: by EC50 relative to siramesine
Experimental: The cytotoxicity of compounds shown below was determined using the CellTiter96 Aqueous One Solution Assay (Promega, Madison, Wis.). […] The plate was read at 490 nm in a Victor3 plate reader (PerkinElmer Life and Analytical Sciences, Shelton, Conn.). The EC^50 value, defined as the concentration of the sigma ligand required to inhibit cell viability by 50% relative to untreated cells, was determined from the dose response curve for each cell line.

D2 = D2 (Homo sapiens, UniProt P14416); conditions: cited from earlier work
[3] = test system: caspase-3 in neuronal cultures; experiment: Caspase-3 activity in neurons; assay type: cell-based
Sigma-1 receptors [4] = target: T1, Sigma-1 receptors (UniProt Q60492); conditions: cited from earlier work
T1 construct: other: known prior art compounds, published studies

[5] = test system: caspase-3 in SKOV-3 human ovarian cancer cells; experiment: Caspase-3 activity in tumor cells; assay type: cell-based
[6] = test system: Abeta oligomer-induced membrane trafficking deficits in primary hippocampal neurons; experiment: Membrane trafficking/exocytosis (MTT) assay; assay type: cell-based, rat
Experimental: The methods used to generate the results were as follows in the Membrane Trafficking/Exocytosis (MTT) assay.
Primary hippocampal neurons from E18 Sprague-Dawley rat embryos were plated at optimized concentrations in 384 well plates in NB media (Invitrogen). Neurons were maintained in cultures for 3 weeks, with twice weekly feeding of NB media with N2 supplement (Invitrogen).
A test compound was added to cells at concentrations ranging from 100 uM to 0.001 nM followed by addition of vehicle or Abeta oligomer preparations (3 μM total Abeta protein concentration), and incubated for 1 to 24 hr at 37° C. in 5% CO2. MTT reagent (3-(4,5-dimethylthizaol-2-yl)-2,5diphenyl tetrazolium bromide) (Roche Molecular Biochemicals) was reconstituted in phosphate buffered saline to 5 mg/mL. 10 μl, of MTT labeling reagent is added to each well and incubated at 37° C. for 1 h, then imaged. Exocytosis was assessed by automated microscopy and image processing to quantify the amount of endocytosed and exocytosed formazan.
Each assay plate was formatted so that compounds are tested with and without Abeta oligomer on each plate.

neuronal cultures = experiment: Neuronal nuclear intensity / morphology; conditions: 24 hours
sigma-2 receptor = conditions: 1 μM each; 18.4 nM [3H]-RHM-1

D2, sequence (P14416 whole entry): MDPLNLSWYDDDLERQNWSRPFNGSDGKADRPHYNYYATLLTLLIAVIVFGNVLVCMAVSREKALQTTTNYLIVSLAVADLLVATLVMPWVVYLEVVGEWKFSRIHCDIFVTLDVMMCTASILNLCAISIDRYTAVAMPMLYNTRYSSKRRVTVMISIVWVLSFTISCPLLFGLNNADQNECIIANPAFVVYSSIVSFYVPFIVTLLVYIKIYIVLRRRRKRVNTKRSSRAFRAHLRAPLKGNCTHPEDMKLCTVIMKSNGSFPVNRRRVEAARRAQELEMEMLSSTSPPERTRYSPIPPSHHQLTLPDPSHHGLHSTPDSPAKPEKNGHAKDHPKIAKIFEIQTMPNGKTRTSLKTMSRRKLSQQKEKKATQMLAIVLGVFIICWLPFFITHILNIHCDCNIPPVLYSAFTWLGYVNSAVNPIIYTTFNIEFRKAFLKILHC
VAChT, sequence (Q16572 whole entry, species assumed): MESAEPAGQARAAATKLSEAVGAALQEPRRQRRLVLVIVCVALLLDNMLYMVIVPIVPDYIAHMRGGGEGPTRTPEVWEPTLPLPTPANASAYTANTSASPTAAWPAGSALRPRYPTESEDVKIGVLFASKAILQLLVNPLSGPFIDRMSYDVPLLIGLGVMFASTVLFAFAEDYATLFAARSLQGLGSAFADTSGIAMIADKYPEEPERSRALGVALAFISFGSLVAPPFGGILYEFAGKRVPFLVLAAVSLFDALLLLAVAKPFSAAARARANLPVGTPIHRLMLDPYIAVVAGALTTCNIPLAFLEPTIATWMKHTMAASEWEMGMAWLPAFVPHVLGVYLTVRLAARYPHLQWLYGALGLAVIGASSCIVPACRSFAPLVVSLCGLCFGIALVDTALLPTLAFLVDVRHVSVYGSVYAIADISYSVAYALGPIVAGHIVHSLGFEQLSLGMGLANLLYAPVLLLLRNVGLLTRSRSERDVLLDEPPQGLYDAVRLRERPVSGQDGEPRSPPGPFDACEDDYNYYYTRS

SMILES	Ki (Sigma-1 receptors [1]) [nM]	Other Targets: muscarinic M1, 2, D2 (muscarinic M1, 2, D2)	Other Targets: VAChT (VAChT)	Ki (Sigma-2 receptors; Table 11E, clinical compounds, second figure of S1/S2, read-out: Sigma Affinity (S2)) [nM]	Other Targets: alpha1 AR, 5-HT1a/2, H1 (alpha1 AR, 5-HT1a/2, H1)	Other Targets: alpha 1A, 1B (alpha 1A, 1B)	Action [2]	Other Targets: D2 (D2)	Caspase-3 activity induced in neurons [3]	Ki (Sigma-1 receptors [4]; read-out: S1 binding Ki, Table 11C) [nM]	Ki (Sigma-1 receptors [4]; read-out: Sigma 1 Binding Ki, known prior art compounds, published studies) [nM]	Caspase-3 activity induced in tumor cells [5]	Effect on Abeta oligomer trafficking deficits over the concentrations tested [6]	EC50 ([6]; Rattus norvegicus, Hippocampal neuron, Table 11C, known prior art compounds, read-out: Inhibition Abeta oligomer-induced Membrane Trafficking EC50) [nM]	Functional Neuronal Phenotype ([6]; Table 11C)	Nuclear morphology / nuclear intensity in neurons (neuronal cultures)	Sigma 2 type of activity (Sigma-2 receptors; in brackets after the Ki)	Displacement of [3H]-RHM-1 (sigma-2 receptor)
COc1ccc(CCN2CCN(CCCc3ccccc3)CC2)cc1OC.Cl.Cl [Cutamesine, Cutamesine dihydrochloride]	17	D2 (2 uM), alpha1	VAChT(50 nM),	> 1800	(2 uM)													
Fc1ccc(-n2cc(CCCCN3CCC4(CC3)OCc3ccccc34)c3ccccc32)cc1 [siramesine]						1A, 1B (300 nM)	Full agonist	D2 (800 nM), alpha	induced	19	19	induced caspase-3 activity	blocks Abeta oligomer trafficking deficits at low concentrations, but causes cellular toxicity at high concentrations	1300	Agonist	caused significant abnormal nuclear morphology	agonist	partially displace

Source: US20140378460A1, “COMPOSITIONS AND METHODS FOR TREATING NEURODEGENERATIVE DISEASE” (COGNITION THERAPEUTICS, INC., priority 2011, published 2014)
